For nine compounds, GI50 and TGI results are on record in PubChem BioAssay (NCI).

Molecules are shown by their SMILES. Where “and” joins values, the source holds several entries; their conditions need not be identical. Identical values can stand only once.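 Five compound concentrations were applied to cells in 96-well plates for 48 hours; endpoints were derived by simple linear interpolation of the resulting dose-response curve. GI50 marks 50% less growth. TGI: concentration producing complete growth inhibition.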

Among the test systems are BT-549 breast; MOLT-4 leukemia; SNB-19 CNS; K-562 leukemia; UO-31 renal; NCI-H522 lung; EKVX NSCLC; MCF7 breast; SR leukemia; NCI/ADR-RES ovarian.
Assay in all cases: growth of human tumour cells (NCI), 48 h

In the case of `CN[C@@H]1C[C@H]2O[C@@](C)([C@@H]1OC)n1c3ccccc3c3c4c(c5c6ccccc6n2c5c31)C(=O)N[C@@H]4O`, the GI50 in the assay on BT-549 breast is 19.3 nM; with MOLT-4 leukemia it was 22.8 nM; in the assay with SNB-19 CNS, 50.2 nM; in the assay with K-562 leukemia it was 162 nM; in the assay on NCI/ADR-RES ovarian it was 105 nM. The TGI with BT-549 breast was 300 nM and 627 nM; with MOLT-4 leukemia, 98.1 nM and 654 nM; in the assay on SNB-19 CNS, 161 nM and 770 nM; with UO-31 renal, 64.5 nM; with NCI-H522 lung, 197 nM and 382 nM; with EKVX NSCLC, 232 nM and 2120 nM. Besides, the TGI was 300 nM and 2510 nM in the assay on MCF7 breast; 833 nM in the assay on SR leukemia; 300 nM and 420 nM with NCI/ADR-RES ovarian.

In the case of `CC[C@@]1(O)C(=O)OCc2c1cc1n(c2=O)Cc2cc3cc(N)ccc3nc2-1`, the GI50 is 158 nM with BT-549 breast; 6.48 nM in the assay with MOLT-4 leukemia; 16.9 nM and < 11.9 nM in the assay on SNB-19 CNS; 51.2 nM and 43 nM with K-562 leukemia; 11.7 nM in the assay with UO-31 renal; 26.1 nM and < 11.2 nM in the assay with NCI-H522 lung. In addition, the GI50 was 304 nM and 348 nM with EKVX NSCLC; 1.65 nM in the assay on MCF7 breast; 13.4 nM with SR leukemia. Besides, the TGI was 1110 nM in the assay with BT-549 breast; 143 nM in the assay on MOLT-4 leukemia; 4110 nM and > 29400 nM with SNB-19 CNS; 169 nM and 35.8 nM with UO-31 renal; 721 nM and 182 nM in the assay on NCI-H522 lung; 9060 nM and 44000 nM with EKVX NSCLC. Moreover, the TGI in the assay on MCF7 breast was 5730 nM; in the assay on SR leukemia, 23.6 nM; in the assay with NCI/ADR-RES ovarian, 169 nM and 116 nM.

Take `Nc1ccc(S(=O)(=O)NCc2nccs2)cc1`: the TGI in the assay on BT-549 breast was 45300 nM; with MOLT-4 leukemia it was 69000 nM; with SNB-19 CNS, above 100000 nM; in the assay with K-562 leukemia it was 82800 nM; with UO-31 renal, 55100 nM; in the assay with NCI-H522 lung it was 35600 nM. For the same compound, the TGI in the assay with EKVX NSCLC is 40700 nM; in the assay on MCF7 breast, 61400 nM; in the assay with SR leukemia, above 100000 nM; with NCI/ADR-RES ovarian it was 62700 nM.

Take `N#C[C@@H]1C(n2ccc(N)nc2=O)O[C@H](CO)[C@H]1O` (some centres not stated): the GI50 was above 100000 nM in the assay with BT-549 breast; 107 nM in the assay with MOLT-4 leukemia; 10300 nM in the assay with SNB-19 CNS; 19600 nM in the assay with K-562 leukemia; 6180 nM in the assay with UO-31 renal; 4240 nM in the assay with NCI-H522 lung. Moreover, the GI50 in the assay with EKVX NSCLC is above 100000 nM; with MCF7 breast, 993 nM; with SR leukemia, 7310 nM; with NCI/ADR-RES ovarian, 12900 nM. Further, the TGI is above 100000 nM with BT-549 breast; above 100000 nM in the assay on MOLT-4 leukemia; above 100000 nM in the assay with SNB-19 CNS; above 100000 nM with K-562 leukemia; above 83400 nM with UO-31 renal; above 100000 nM in the assay on NCI-H522 lung. In addition, the TGI with EKVX NSCLC, with MCF7 breast, with SR leukemia and in the assay with NCI/ADR-RES ovarian was above 100000 nM each time.

Regarding `C=C1C(=O)O[C@H]2C[C@@]3(C)[C@H](O)CCC(=C)[C@@H]3[C@@H](OC(C)=O)[C@H]12`, the TGI in the assay on BT-549 breast is 25000 nM; in the assay with MOLT-4 leukemia, above 31000 nM; in the assay with SNB-19 CNS, 31500 nM; with K-562 leukemia, above 23300 nM; in the assay with UO-31 renal it was 27000 nM; in the assay with NCI-H522 lung, 4130 nM. Also, the TGI in the assay with EKVX NSCLC was 38100 nM; in the assay with MCF7 breast, 9840 nM; in the assay on SR leukemia, above 20000 nM; in the assay with NCI/ADR-RES ovarian, 76800 nM.

`O=C1c2ccccc2-n2c1nc1ccccc1c2=O`: the TGI in the assay with BT-549 breast is 45400 nM; in the assay on MOLT-4 leukemia, above 100000 nM; in the assay on SNB-19 CNS it was above 91200 nM; in the assay on K-562 leukemia, above 44600 nM; with UO-31 renal it was 42900 nM; in the assay with NCI-H522 lung, 64300 nM. Moreover, the TGI in the assay with EKVX NSCLC was 35300 nM; in the assay on MCF7 breast, 25200 nM; with SR leukemia, above 100000 nM; with NCI/ADR-RES ovarian, above 100000 nM.

With `COC(=O)CCC1=C(C)/C(=C/c2[nH]c(-c3ccc[nH]3)cc2OC)N=C1C`, the GI50 with BT-549 breast is 493 nM; in the assay on MOLT-4 leukemia, 368 nM; with SNB-19 CNS, 2020 nM; in the assay on K-562 leukemia, 374 nM; in the assay on UO-31 renal it was 556 nM; with NCI-H522 lung, 413 nM. Also, the GI50 in the assay on EKVX NSCLC was 1460 nM; in the assay on MCF7 breast it was 331 nM; in the assay on SR leukemia it was 317 nM; with NCI/ADR-RES ovarian, 434 nM. Besides, the TGI turned out to be 5450 nM in the assay on BT-549 breast; 7080 nM with MOLT-4 leukemia; 17500 nM in the assay with SNB-19 CNS; 4900 nM in the assay on K-562 leukemia; 2920 nM with UO-31 renal; 1780 nM in the assay with NCI-H522 lung. The TGI is 10800 nM in the assay on EKVX NSCLC, 1430 nM in the assay with MCF7 breast, 88700 nM in the assay with SR leukemia and 12300 nM with NCI/ADR-RES ovarian.

On to `O=C(O)CSc1ncccc1[N+](=O)[O-]`, for which the TGI with BT-549 breast, in the assay with MOLT-4 leukemia, with SNB-19 CNS, in the assay on K-562 leukemia, in the assay with UO-31 renal and in the assay with NCI-H522 lung was above 100000 nM each time. Further, the TGI in the assay with EKVX NSCLC, in the assay with MCF7 breast, with SR leukemia and with NCI/ADR-RES ovarian was above 100000 nM throughout.

In the case of `COc1cc2nc(-c3ccc(C(F)(F)F)cc3)cc(OCCCN3CCCCC3)c2cc1OC`, the GI50 is 1480 nM in the assay with BT-549 breast; 1700 nM in the assay with MOLT-4 leukemia; 2820 nM with SNB-19 CNS; 578 nM with K-562 leukemia; 2000 nM with UO-31 renal; 2440 nM with NCI-H522 lung. Moreover, the GI50 in the assay with EKVX NSCLC is 803 nM; with MCF7 breast, 1160 nM; in the assay on SR leukemia, 193 nM; in the assay with NCI/ADR-RES ovarian, 522 nM. Besides, the TGI in the assay on BT-549 breast amounted to 11700 nM; in the assay with MOLT-4 leukemia, 8560 nM; with SNB-19 CNS, 14600 nM; with K-562 leukemia, 10400 nM; with UO-31 renal, 12500 nM; with NCI-H522 lung it was 21700 nM. For the same compound, the TGI in the assay with EKVX NSCLC stood at 14600 nM; in the assay with MCF7 breast, 4390 nM; with SR leukemia it was 3620 nM; with NCI/ADR-RES ovarian it was 14800 nM.
